The values that follow come from paper PMC8124269 (Molecules, 2021).

For one data set, the system named is wild type N-NTD. The arrangement: method as in PMID 22272272. The conditions noted are these: hexachlorofluorescein labeled ssRNA titrated with N-NTD; read-out: KD of RNA binding to N-NTD; cited from earlier work.
The next data set deals with COX. As to conditions: cited from earlier work; for COX Inhibition: which COX is inhibited, ref 11 (given for naproxen A and C0).
The nature of data set [1]: Cytotoxicity in Vero E6 cells. The conditions noted are these: African green monkey.
Data set [2] deals with SARS-CoV-2. In words: microbe, parasite or virus in culture. The class given is cell-based. As to conditions: for effect on viral replication: infected Vero E6 cells, MOI 0.01, 48 and 72 hpi.
Data set [3] relates to N NTD oligomerization induced by 48-mer DNA. The class given is biochemical. The conditions noted are these: for Oligomer Inhibition/Enhancement / Oligomer Size (hydrodynamic diameter Dh of DNA-NTD complex): NTD (60 µM) monomer, [compound] = 37.5 µM, [48-mer] = 29.4 µM; for Oligomer Size (hydrodynamic diameter Dh of DNA-NTD complex): 20 °C, without ligand 15.7 ± 0.7.
Another data set in a line: in vitro. As to conditions: African green monkey.
For another data set, the system named is Influenza A virus. As to conditions: cited from earlier work.
Data set [4] concerns the target SARS-CoV-2 N-NTD (monomer) with labeled 10-mer RNA (Severe acute respiratory syndrome coronavirus 2, UniProt P0DTC9). In words: biochemical. The conditions noted are these: read-out: N Binding, Fluo Anisotropy (KD, displacement of RNA).
Another data set deals with viral 3C-like protease. The conditions noted are these: cited from earlier work.
For the next data set, the system named is SARS-CoV-2 in nasal HAE. As to conditions: 90 µM or 300 µM, postinfection treatment, 48 hpi.
Data set [5] concerns SARS-CoV-2. The arrangement: method as in PMID 33441348. As to conditions: cited from earlier work.
[6] abbreviates: Vero E6, MOI 0.01, treatment 1 hpi.

Entries after “also recorded” stand apart in the source; their conditions may differ. Like-named read-outs stand apart in the source and are kept apart here.

In the case of “10-mer RNA: fluorescently labeled RNA UCUCUAAACG labeled with 5′-hexachlorofluorescein”, the Kd in the data set on wild type N-NTD was 8.3 ± 0.8 µM.
As to `CC(=O)Nc1ccc(O)cc1` [Acetaminophen (paracetamol), Acetaminophen], in the data set with COX, the “COX Inhibition” value is “COX1 + COX2 ? ^1”. Besides, in data set [1], the CC50 is over 400 µM, the CC50 at 48 h post infection was over 400 µM and the CC50 at 72 h post infection was over 400 µM. The “Mean IC50 (viral replication)” value in the data set on SARS-CoV-2 [2] (setting [6]) is on record as “No inhibition”. Further, the “effect on viral replication” value with SARS-CoV-2 [2] is recorded as “No inhibition of viral replication; also recorded: mainly not affecting viral replication”. Moreover, in [3], the “Oligomer Inhibition/Enhancement” value is listed as “did not modify NTD oligomerization” and the “Oligomer Size (hydrodynamic diameter Dh of DNA-NTD complex)” value came to 14.0 ± 1.0 nm.
`Cc1ccc(-c2cc(C(F)(F)F)nn2-c2ccc(S(N)(=O)=O)cc2)cc1` [Celecoxib]: in the data set with COX, the “COX Inhibition” value is recorded as “COX2”. For the same molecule, in data set [1], the CC50 was 80 µM and the CC50 at 48 h post infection turned out to be 83 µM. Besides, the “Mean IC50 (viral replication)” value in the data set on SARS-CoV-2 [2] (setting [6]) is recorded as “proviral”. Also, in the data set on SARS-CoV-2 [2], the “effect on viral replication” value was “No inhibition of viral replication; also recorded: did not present a clear antiviral effect”. Also, in [3] (listed as celecoxib), the “Oligomer Inhibition/Enhancement” value is listed as “enhanced the formation of large species”. Further, the “Oligomer Size, large particles formed” value in data set [3] (compound in DMSO, compared to N + DMSO (12 nm)) is “^7 Formation of large particles of 3 µm as compared to N + DMSO (12 nm)”.
Take `COc1ccc2cc(C(CCC(=O)O)C(=O)O)ccc2c1` (stereo not drawn) [Naproxen A]: in the data set “in vitro”, the CC50 was over 1000 µM, the CC50 at 48 h post infection is over 1000 µM and the CC50 at 72 h post infection is over 1000 µM. Besides, the “ability to inhibit COX” value in the data set on COX is listed as “lacked the ability to inhibit COX”. The “antiviral effect against Influenza A virus” value with Influenza A virus was “no antiviral effect”. In addition, the “Mean IC50 (viral replication)” value in the data set on SARS-CoV-2 [2] (setting [6]) was “No inhibition”. Besides, the “effect on viral replication” value in the data set on SARS-CoV-2 [2] is “did not reduce viral replication”. Also, the “Oligomer Size (hydrodynamic diameter Dh of DNA-NTD complex)” value in data set [3] turned out to be 16.0 ± 0.8 nm.
Turning to `COc1ccc2cc(-c3c(C(=O)O)cccc3C(=O)O)ccc2c1` [Naproxen C0], the CC50 in the data set “in vitro” is over 1000 µM. This molecule displayed a CC50 at 48 h post infection in the data set “in vitro” of over 1000 µM. This molecule showed a CC50 at 72 h post infection in “in vitro” of over 1000 µM. The “ability to inhibit COX” value with COX was “lacked the ability to inhibit COX”. Also, the dissociation constant (Kd) in data set [4] amounted to 1.6 µM. Also, the half-inhibitory concentration (IC50) in the data set on SARS-CoV-2 [2] (Severe acute respiratory syndrome coronavirus 2, Vero C1008, Vero E6, MOI 0.01, treatment 1 hpi, read-out: Mean IC50 (viral replication)) is 75 ± 25 µM; in the data set with SARS-CoV-2 [2] (Severe acute respiratory syndrome coronavirus 2, Vero C1008, Vero E6, MOI 0.01, unique treatment at 1 hpi, 48 hpi, read-out: IC50), 101 µM; with SARS-CoV-2 [2] (Severe acute respiratory syndrome coronavirus 2, Vero C1008, Vero E6, MOI 0.01, unique treatment at 1 hpi, 72 hpi, read-out: IC50), 45.1 µM; in the data set on SARS-CoV-2 [2] (Vero E6, MOI 0.01, treatment 1 hpi, read-out: Mean IC50 (viral replication)), 73 ± 25 µM. The “Oligomer Size (hydrodynamic diameter Dh of DNA-NTD complex)” value in data set [3] is 12.7 ± 0.7 nm.
On to `COc1ccc2cc([C@H](C)C(=O)O)ccc2c1` [Naproxen, naproxen], for which the “COX Inhibition” value in the data set on COX is “COX1 + COX2”. Moreover, the half-maximal inhibitory concentration (IC50) with viral 3C-like protease was 3.45 µM; in the data set with Influenza A virus (MOI = 10^−2), 25 ± 7 µM; with SARS-CoV-2 [2] (Severe acute respiratory syndrome coronavirus 2, Vero C1008, Vero E6, MOI 0.01, unique treatment at 1 hpi, 48 hpi) it was 46.1 µM; in the data set on SARS-CoV-2 [2] (Severe acute respiratory syndrome coronavirus 2, Vero C1008, Vero E6, MOI 0.01, unique treatment at 1 hpi, 72 hpi), 59.5 µM; with SARS-CoV-2 [2] (Severe acute respiratory syndrome coronavirus 2, Vero C1008, read-out: Mean IC50 (viral replication), Vero E6, MOI 0.01, treatment 1 hpi), 50 ± 10 µM; with SARS-CoV-2 [2] (read-out: Mean IC50 (viral replication), Vero E6, MOI 0.01, treatment 1 hpi) it was 52 ± 6 µM. Also, the “antiviral effect versus mock-treated control” value in the data set on SARS-CoV-2 in nasal HAE is reported as “did not show an antiviral effect”. Moreover, the “Oligomer Size (hydrodynamic diameter Dh of DNA-NTD complex)” value in data set [3] was found to be 7.9 ± 0.3 nm.
Take `CC(C)Cc1ccc(C(C)C(=O)O)cc1` (stereo not drawn) [ibuprofen]: the “effect on SARS-CoV-2 entry or replication in vitro” value in the data set with SARS-CoV-2 [5] is listed as “did not affect SARS-CoV-2 entry or replication in vitro”.
Consider `Cc1cnc(NC(=O)C2=C(O)c3ccccc3S(=O)(=O)N2C)s1` [meloxicam], for which the “effect on SARS-CoV-2 entry or replication in vitro” value in the data set with SARS-CoV-2 [5] is on record as “did not affect SARS-CoV-2 entry or replication in vitro”.

In general, Kd refers to the concentration at which binding is half-saturated. What is called IC50 is the concentration at which inhibition is half-maximal.
